This experiment concerns the target T1, recombinant human IL-8 type b receptor (IL-8 Rb, Type II, permissive receptor) (Homo sapiens, UniProt P25025).
T1 sequence (P25025 1-360): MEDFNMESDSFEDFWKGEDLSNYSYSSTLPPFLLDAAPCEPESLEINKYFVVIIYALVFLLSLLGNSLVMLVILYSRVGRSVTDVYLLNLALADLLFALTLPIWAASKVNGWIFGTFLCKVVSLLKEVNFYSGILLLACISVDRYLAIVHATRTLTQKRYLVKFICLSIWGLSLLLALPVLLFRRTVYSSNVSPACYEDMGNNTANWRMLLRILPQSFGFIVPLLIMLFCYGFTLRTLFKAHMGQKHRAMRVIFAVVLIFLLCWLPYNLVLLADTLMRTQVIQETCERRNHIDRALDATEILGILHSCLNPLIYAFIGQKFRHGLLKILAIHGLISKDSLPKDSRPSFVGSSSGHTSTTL
As to the kind of experiment: Receptor binding assay, [125I] IL-8 binding to IL-8 Rb (Type II, permissive) receptor membranes. Particulars: recombinant IL-8 Rb (Type II) CHO membranes. On the procedure: The IL-8, and Gro-a chemokine inhibitiory effects of compounds of the present invention were determined by the following in vitro assay:
[^125 I] IL-8 (human recombinant) was obtained from Amersham Corp., Arlington Heights, Ill., with specific activity 2000 Ci/mmol. Gro-a was obtained from NEN- New England Nuclear. All other chemicals were of analytical grade. High levels of recombinant human IL-8 type a and b receptors were individually expressed in Chinese hamster ovary cells as described previously (Holmes, et al., Science, 1991, 253, 1278). The Chinese hamster ovary membranes were homogenized according to a previously described protocol (Haour, et al., J Biol Chem., 249 pp 2195-2205 (1974)). Except that the homogenization buffer was changed to 10 mM Tris-HCl, 1 mM MgS04, 0.5 mM EDTA (ethylene-diaminetetraacetic acid), 1 mM PMSF (a-toulenesulphonly flouride), 0.5 mg/L Leupeptin, pH 7.5. Membrane protein concentration was determined using Pierce Co. micro-assay kit using bovine serum albumin as a standard. All assays were performed in a 96-well micro plate format. Each reaction mixture contained ^125 I IL-8 (0.25 nM) or ^125 I Gro-a and 0.5 μg/mL of IL-8Ra or 1.0 μg/mL of IL-8Rb membranes in 20 mM Bis-Trispropane and 0.4 mM Tris HCl buffers, pH 8.0, containing 1.2 mM MgSO4, 0.1 mM EDTA, 25 mM NaCl and 0.03% CHAPS. In addition, drug or compound of interest was added which had been pre-dissolved in DMSO so as to reach a final concentration of between 0.01 nM and 100 uM. The assay was initiated by addition of ^125 I-IL-8. After 1 hour at room temperature the plate was harvested using a Tomtec 96-well harvester onto a glass fiber filtermat blocked with 1% polyethylenimine/0.5% BSA and washed 3 times with 25 mM NaCl, 10 mM TrisHCl, 1 mM MgSO4, 0.5 mM EDTA, 0.03% CHAPS, pH 7.4. The filter was then dried and counted on the Betaplate liquid scintillation counter. The recombinant IL-8 Ra, or Type I, receptor is also referred to herein as the non-permissive receptor and the recombinant IL-8 Rb, or Type II, receptor is referred to as the permissive receptor.
Regarding `N#Cc1ccc(NC(=O)N[C@@H]2CCCC[C@H]2OCc2ccccc2)c(NS(=O)(=O)c2ccccc2)c1` (relative stereo) [N-trans-(2-benzyloxycyclohexyl)-N'-((2-benzenesulfonylamino)4-cyanophenyl))urea], the “activity in the permissive models for IL-8 receptor inhibition (result in words)” value is “inactive”.

Regarding `CC(C)(COCc1ccccc1)NC(=O)Nc1ccc([N+](=O)[O-])cc1O` [Example 6, N-(1,1-Dimethyl-2-benzoxyethyl)-N'-(2-hydroxy-4-nitrophenyl)urea], the “activity in the permissive models for IL-8 receptor inhibition (result in words)” value was “inactive”.

On to `O=C(O)CCNC(=O)Nc1ccc([N+](=O)[O-])cc1O` [N-(2-carboxyethyl)-N'-(2-hydroxy-4-nitrophenyl)urea], for which the “activity in the permissive models for IL-8 receptor inhibition (result in words)” value is “inactive”.

`CC(C)OCCNC(=O)Nc1ccc([N+](=O)[O-])cc1O` [N-(ethylisopropylether)-N'-(2-hydroxy-4-nitro-phenyl)urea]: the “activity in the permissive models for IL-8 receptor inhibition (result in words)” value is “inactive”.
